In patent US10336746B1, “RAD51 inhibitors” (Cyteir Therapeutics, Inc., priority 2017, dated 2019):
Like-named read-outs stand apart in the source and are kept apart here.

Columns and labels:
[1] = test system: Daudi cell line (AID positive); assay: Primary screening cell killing assay, Daudi cell line (AID positive); assay type: cell-based; conditions: Homo sapiens, 168 h, cell death on Day 7, Cell-Titer Glo
Method in brief: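 AID-positive Daudi cells, 1250 per well, were exposed to serially diluted compounds for 7 days at 37° C. Viability read by CellTiter-Glo luminescence; percent cell death and EC50 derived against untreated wells after media-blank subtraction.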

[2] = Bi-directional Caco-2 permeability; assay type: in vitro ADME; conditions: human; for efflux ratio at 90 min: Caco-2, read-out: BA/AB Ratio; for Papp A→B at 90 min: Caco-2, apical to basolateral, read-out: AB Papp (cm/sec × 10^6); for Papp A→B at 90 min / Papp B→A at 90 min: 37 C, up to 90 minutes; for Papp B→A at 90 min: Caco-2, basolateral to apical, read-out: BA Papp (cm/sec × 10^6)
Protocol: Bi-directional Caco-2 permeability was assayed. Caco-2 cells were seeded onto permeable polycarbonate supports and allowed to differentiate for about 3 weeks prior to being used in the assays. The cells were then exposed to the compounds from either the apical or basolateral sides and incubated at 37 C for up to 90 minutes under light agitation. Compound transport was then measured using LC/MS/MS analysis at 30, 60, and 90 minutes.

[3] = Human liver microsome stability; assay type: in vitro ADME; conditions: human liver microsomes; for half-life / microsomal CLint: 37° C., 45 minutes; for microsomal CLint: read-out: Clearance (μg/min/mg)
Protocol: The stability of the claimed compounds was determined in the presences of human liver microsomes. The compounds were incubated with the microsomes at 37° C. for 45 minutes. Samples were analyzed using LC-MS/MS. Data analysis included half-life, clearance rate, and the percentage of hepatic blood flow (% QH) for each of the compounds in the different species.

Daudi (Lymphoma) = assay: Cell line screen, Daudi; assay type: cell-based; conditions: Homo sapiens, AICDA Expression High
Protocol: (§1) The activity of the claimed compounds was measured in a variety of cell lines with different expression levels of activation induced cytidine deaminase (AICDA). The potency assay was repeated in all of the listed cell lines and the EC50 values recorded.

WSU-FSCCL (Lymphoma) = assay: Cell line screen, WSU-FSCCL; assay type: cell-based; conditions: AICDA Expression Negative
Protocol: as §1

KYSE-70 (Head and Neck) = assay: Cell line screen, KYSE-70; assay type: cell-based; conditions: Homo sapiens, AICDA Expression Low
Protocol: as §1

KG-1 (Leukemia) = assay: Cell line screen, KG-1; assay type: cell-based; conditions: AICDA Expression Negative
Protocol: as §1

KYSE-510 (Head and Neck) = assay: Cell line screen, KYSE-510; assay type: cell-based; conditions: Homo sapiens, AICDA Expression Negative
Protocol: as §1

SNU-5 (Gastric) = assay: Cell line screen, SNU-5; assay type: cell-based; conditions: Homo sapiens, AICDA Expression Low
Protocol: as §1

OV56 (Ovary) = assay: Cell line screen, OV56; assay type: cell-based; conditions: AICDA Expression Low
Protocol: as §1

[4] = test system: ARPE19/HPV16 (HPV Immortalized RPE); assay: Cell line screen, ARPE19/HPV16; assay type: cell-based; conditions: ARPE-19, AICDA Expression Negative
Protocol: as §1

[5] = Pharmacokinetic (PK) study, plasma by LC-MS; assay type: in vivo, Rat; conditions: po @ 80 mg/kg (30% PEG400, 10% Vitamin E TPGS in water); for half-life: plasma
Protocol: PK studies in mice were used to determine the fate of the compounds in a whole organism. Rats were treated with the compounds either orally of via IV at the indicated doses and followed for up to 24 hours. Plasma samples were taken at different time points and analyzed by LC-MS.

[6] = Caco-2, Caco-2, AB direction, read-out: AB Recovery %
[7] = Caco-2, Caco-2, BA direction, read-out: BA Recovery %

| SMILES | EC50 [1] [nM] | recovery at 90 min [2, 6] [%] | recovery at 90 min [2, 7] [%] | efflux ratio at 90 min [2] | Papp A→B at 90 min [2] [×10⁻⁶ cm/s] | Papp B→A at 90 min [2] [×10⁻⁶ cm/s] | % QH (percentage of hepatic blood flow) [3] [%] | half-life [3] [min] | microsomal CLint [3] [µL/min/mg] | EC50 (Daudi (Lymphoma)) [nM] | EC50 (WSU-FSCCL (Lymphoma)) [nM] | EC50 (KYSE-70 (Head and Neck)) [nM] | EC50 (KG-1 (Leukemia)) [µM] | EC50 (KYSE-510 (Head and Neck)) [µM] | EC50 (SNU-5 (Gastric)) [µM] | EC50 (OV56 (Ovary)) [µM] | EC50 [4] [µM] | F (%) @ 5 mg/kg ([5]; Rat Female) [%] | F (%) @ 5 mg/kg ([5]; Rat Male) [%] | half-life ([5]; Rat Female) [min] | other results |
| --- | --- | --- | --- | --- | --- | --- | --- | --- | --- | --- | --- | --- | --- | --- | --- | --- | --- | --- | --- | --- | --- |
| CC(C)OC(=O)N[C@H]1CC[C@H](c2ncc(-c3ccc(NC(=O)NCc4ccccc4)cc3S(=O)(=O)NC(C)(C)C)s2)CC1 [Ex. 66A, trans-isopropyl N-[4-[5-[4-(benzylcarbamoylamino)-2-(tert-butylsulfamoyl)phenyl]thiazol-2-yl]cyclohexyl]carbamate] | ≤ 100 | 64.9 | 81.2 | 1.4 | 2.9 | 3.9 | 49.6 | 77.6 | 18.2 | 18 | 25 | 2640 | 3.07 | 4.52 | 2.94 | 5.94 | > 10 | 3.31 | 2.55 | 155 | half-life ([5]; Rat Male): 112 min |
| CC(C)OC(=O)Nc1ccc(-c2cnc([C@H]3CC[C@H](NC(=O)OC(C)C)CC3)s2)c(S(=O)(=O)NC(C)(C)C)c1 [Ex. 67A, trans-isopropyl N-[3-(tert-butylsulfamoyl)-4-[2-[4-(isopropoxycarbonylamino)cyclohexyl]thiazol-5-yl]phenyl]carbamate] | 100 to 1000 | 50.7 | 78.6 | 0.7 | 10.5 | 6.9 | <20.3 | > 300 | < 4.6 | 311 | 344 | 2630 | 3 | 3.4 | 3.85 | 7.23 | > 10 | 86.5 | 46.9 | 690 | half-life ([5]; Rat Male): 388 min |
